Source: paper PMC5989226 (Nature Communications, 2018)

What was measured:
Format in all cases: binding
[1] = molecular target: T1, DELAY OF GERMINATION1 (DOG1) (Arabidopsis thaliana, UniProt A0SVK0, H245A); test: UV-visible absorption hemin titration ([…] nm)
T1 construct: full-length, N-terminal His6-tagged

[2] = molecular target: T2, DELAY OF GERMINATION1 (DOG1) (Arabidopsis thaliana, UniProt A0SVK0, H245A/H249A); test: UV-visible absorption hemin titration ([…] nm)
T2 construct: full-length, N-terminal His6-tagged

[3] = molecular target: T3, DELAY OF GERMINATION1 (DOG1) (Arabidopsis thaliana, UniProt A0SVK0); test: UV-visible absorption titration of apo-DOG1 with hemin (Soret peak, […] nm), […] fit
T3 sequence (A0SVK0 1-291): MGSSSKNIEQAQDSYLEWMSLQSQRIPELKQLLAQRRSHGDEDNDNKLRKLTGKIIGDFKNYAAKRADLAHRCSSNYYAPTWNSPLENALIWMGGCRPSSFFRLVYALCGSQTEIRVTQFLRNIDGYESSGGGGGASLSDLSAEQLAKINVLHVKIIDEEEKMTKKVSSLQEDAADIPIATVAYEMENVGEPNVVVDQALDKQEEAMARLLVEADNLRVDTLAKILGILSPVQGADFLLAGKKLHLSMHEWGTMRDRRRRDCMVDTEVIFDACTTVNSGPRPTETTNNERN

T2 sequence (A0SVK0 whole entry H245A/H249A): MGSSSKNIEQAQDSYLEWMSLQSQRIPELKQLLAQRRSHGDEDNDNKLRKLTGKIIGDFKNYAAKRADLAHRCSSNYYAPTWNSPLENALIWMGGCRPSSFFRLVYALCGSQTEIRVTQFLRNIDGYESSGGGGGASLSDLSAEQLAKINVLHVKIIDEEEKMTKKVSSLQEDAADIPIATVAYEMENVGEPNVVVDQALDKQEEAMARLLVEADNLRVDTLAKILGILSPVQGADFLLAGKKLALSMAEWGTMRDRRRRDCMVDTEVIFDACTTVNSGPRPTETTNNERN
T1 sequence (A0SVK0 whole entry H245A): as the sequence (A0SVK0 whole entry H245A/H249A) above, with A249H counted along it

Compound `C=CC1=C(C)C2=Cc3c(C=C)c(C)c4[n]3[Fe]([Cl])[n]3c(c(C)c(CCC(=O)O)c3=CC3=NC(=C4)C(C)=C3CCC(=O)O)=CC1=N2` [hemin] has a Kd [1] of 129 nM, a Kd [2] of 918 nM and a Kd [3] of 59 nM.
